Molecules are shown by their SMILES.

This series is described as follows: in vitro. Particulars: rat, erythrocytes. The method, then:
Cytotoxicity of the bovine excretion extracts according to the present invention was tested by measuring degree of hemolysis of erythrocytes. To erytlirocytes isolated from rats, the extracts prepared in example 1 were added and then, the mixture was cultivated at a temperature of 37° C. for 30, 60 and 120 minutes, respectively. After centrifugation, 400 μl of medium was taken and then reagent for detection of hemolysis was added thereto. Then, absorbance was read at 540 nm to determine degree of hemolysis. Degree of hemolysis (%) is calculated as follows: [formula]
Erythrocytes treated with menadione (positive control) were measured on degree of hemolysis, for the purpose of comparison with the bovine excretion extracts prepared in example 1. Menadione is a known compound which induce hemolysis of erythrocytes.

For `CC1=CC(=O)c2ccccc2C1=O` [menadione, Menadione], the hemolysis at 0 h was 0%, the hemolysis at 0.5 h is 1.6 ± 1.3%, the hemolysis at 1 h amounted to 2.3 ± 0.4% and the hemolysis at 2 h was 65.3 ± 4.8%.

These data come from patent US6248367A, “Bovine excretion extracts having anticancer and anti-inflammatory activity and process for preparing the same” (Kim; Bok Deuk, priority 1998, dated 2001).
